Reference: ChEMBL document CHEMBL5042519, “Design and synthesis of marine sesterterpene analogues as novel estrogen receptor α degraders for breast cancer treatment” (Eur J Med Chem, 2022)
Calls of active or inactive are those of the source. No cut-off for these calls is given here.

Columns and labels:
[1] = Antiproliferative activity against human MCF-10A cells assessed as reduction in cell viability after 48 hrs by MTT assay; assay type: toxicity, cell-based
MCF7 [2] = experiment: Antiproliferative activity against human MCF7 cells assessed as reduction in cell viability after 48 hrs by MTT assay; assay type: functional, cell-based; details: MCF7, 48 h
MCF7 [3] = experiment: Antiproliferative activity against human MCF7/ADR cells assessed as reduction in cell viability after 48 hrs by MTT assay; assay type: functional, cell-based; details: MCF7, 48 h
[4] = Resistance index, ratio of IC50 for antiproliferative activity against human MCF7/ADR cells to IC50 for antiproliferative activity against human MCF7 cells; assay type: functional
MDA-MB-231 = experiment: Antiproliferative activity against human MDA-MB-231 cells assessed as reduction in cell viability after 48 hrs by MTT assay; details: MDA-MB-231, 48 h
[5] = Selectivity index, ratio of IC50 for antiproliferative activity against human MCF-10A cells to IC50 for antiproliferative activity against human MDA-MB-231 cells by MTT assay; assay type: toxicity, cell-based; details: MCF-10A cells versus MDA-MB-231 cells, read-out: Ratio IC50
[6] = biological target: T1, Estrogen receptor (Homo sapiens) (UniProt P03372); experiment: Induction of ERalpha degradation in human MCF7 cells assessed as decrease in ERalpha protein expression at 1 uM incubated for 24 hrs by Western blot analysis; assay type: cell-based
T1 sequence (whole entry): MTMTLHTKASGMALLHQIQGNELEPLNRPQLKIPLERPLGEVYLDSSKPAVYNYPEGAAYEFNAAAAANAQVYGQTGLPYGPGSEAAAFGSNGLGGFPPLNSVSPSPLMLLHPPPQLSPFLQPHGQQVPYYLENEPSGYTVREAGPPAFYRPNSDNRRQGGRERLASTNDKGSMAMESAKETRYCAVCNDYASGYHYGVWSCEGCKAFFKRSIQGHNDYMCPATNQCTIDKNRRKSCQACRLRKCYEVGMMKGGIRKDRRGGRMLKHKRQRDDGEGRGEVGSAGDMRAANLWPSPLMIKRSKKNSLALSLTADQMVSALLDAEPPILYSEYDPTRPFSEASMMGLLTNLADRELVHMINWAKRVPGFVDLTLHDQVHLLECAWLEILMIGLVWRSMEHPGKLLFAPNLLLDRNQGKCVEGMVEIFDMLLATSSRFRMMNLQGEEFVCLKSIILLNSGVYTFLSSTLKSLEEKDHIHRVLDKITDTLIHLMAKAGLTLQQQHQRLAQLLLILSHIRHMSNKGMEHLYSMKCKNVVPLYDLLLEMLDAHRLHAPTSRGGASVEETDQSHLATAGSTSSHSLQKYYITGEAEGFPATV

[7] = Metabolic stability in rat plasma assessed as parent compound remaining incubated for 60 mins in presence of NADPH by UPLC-MS analysis; assay type: ADME, cell-free; details: read-out: Stability
[8] = Metabolic stability in rat liver microsomes assessed as assessed as intrinsic clearance incubated for 60 mins in presence of NADPH by UPLC-MS analysis; assay type: ADME, Microsome; details: read-out: CLH

IC50 (MCF7 [2]): 3.92 µM
IC50 (MCF7 [3]): 2.48 µM
IC50 (MDA-MB-231): 2.1 µM
Activity [6]: Active
remaining at 1 h [7]: 97%
microsomal CLint [8]: 14.5 µL/min/mg
Structure (SMILES): CC(C)=C/C=C\[C@H](C)[C@H]1CC[C@]2(C)C[C@@H]3C(C)=CC(=O)[C@H]3/C(C=O)=C\C[C@@H]12
IC50 at 48 h [1]: 3.68 µM
Ratio IC50 [4]: 0.63
selectivity ratio [5]: 0.94
